Literature values as cited in article PMC7238799 (Pulmonary Circulation, 2020).
Like-named read-outs stand apart in the source and are kept apart here.

Key:
[1] = cited from earlier work; for Steady-state PTR / Half-life: oral
[2] = test system: prostacyclin (IP) receptor; conditions: cited from earlier work
healthy male subjects = conditions: from 400 µg BID up to 1600–1800 µg BID; cited from earlier work
[3] = BID oral administration of selexipag

CCCCC[C@H](O)CC[C@@H]1[C@H]2Cc3cccc(OCC(=O)O)c3C[C@H]2C[C@H]1O [treprostinil]
Steady-state PTR ([1]; BID dosing): 7.0
Steady-state PTR ([1]; TID dosing): 2.5
Half-life ([1]; administered two or three times daily): 3 to 4 h

CC#CCC(C)[C@H](O)/C=C/[C@@H]1[C@H]2C/C(=C/CCCC(=O)O)C[C@H]2C[C@H]1O (stereo partly shown) [iloprost]
Maximal cAMP stimulation (efficacy percentage relative to iloprost) [2]: 100%
Type of IP receptor agonism [2]: full agonist

CC(C)N(CCCCOCC(=O)NS(C)(=O)=O)c1cnc(-c2ccccc2)c(-c2ccccc2)n1 [selexipag]
Treated subjects achieving full dose escalation (healthy male subjects): 67–81%

CC(C)N(CCCCOCC(=O)O)c1cnc(-c2ccccc2)c(-c2ccccc2)n1 [ACT-333679]
Maximal cAMP stimulation (efficacy percentage relative to iloprost) [2]: 48%
Type of IP receptor agonism [2]: weak partial agonist
Accumulation at steady-state [1, 3]: 1.02–1.27 fold
Mean steady-state PTR [1, 3]: 5.6–6.5
Effective half-life (EHL) ([1]; active metabolite of selexipag): 3 to 4 h
Terminal elimination half-life ([1]; active metabolite of selexipag): 6.2 to 13.5 h

CC#CCC(C)[C@H](O)/C=C/[C@@H]1[C@H]2c3cccc(CCCC(=O)O)c3O[C@H]2C[C@H]1O (mixture of isomers) [beraprost]
Half-life ([1]; administered four times daily): 0.75 h
